Data on two compounds can be found in patent US20210220392A1, “MOLECULAR HYDROGEN-CONTAINING COMPOSITION FOR PREVENTION AND/OR IMPROVEMENT OF INFLAMMATORY BOWEL DISEASE” (MiZ Company Limited, priority 2020, published 2021).

For series [1] the following is noted: known; versus H2; cited from earlier work.
The test system of a further series is ulcerative colitis. In words: A case of ulcerative colitis improved by hydrogen inhalation (single patient case report). The format is in vivo, human. As to the method:
From around January 2018, the patient was taking a therapeutic agent for ulcerative colitis but was distressed because the disease was not cured with cyclic improvement and worsening. Additionally, the patient became depressed and gloomy, suffering insomnia and weight loss, because of the prolonged symptoms of ulcerative colitis. […] The patient drank two 500 mL PET bottles of hydrogen water per day.

The conditions of series [2]: room temperature, normal pressure; also printed as 1.6 mg/L; cited from earlier work.
[3] abbreviates: around June 9, six days after initiation of hydrogen gas inhalation plus hydrogen water.

For `[2H][2H]` [D2, deuterium], the “superoxide eliminating effect compared with H2” value in series [1] is “stronger”.
As to `[HH]` [hydrogen gas, molecular hydrogen], in the series on ulcerative colitis (setting [3]), the general condition result is recorded as “recovered” and the sleep condition entry is “improved”. In the series on ulcerative colitis (by Aug. 22, 2019), the body weight entry is given as “increased to the healthy weight before the onset of the disease”. Further, the hemorrhage entry with ulcerative colitis (by Aug. 22, 2019 (end of inhalation therapy)) was “no hemorrhage was found”. In addition, the hemorrhage entry with ulcerative colitis (by Jul. 31, 2019) is listed as “no hemorrhage was found except that blood was attached to the stool only on the day after the patient had drunk alcohol”. In addition, in the series with ulcerative colitis (by Jun. 17, 2019), the “frequency of defecation and patient's vigor” value is listed as “returned to the levels before the onset of the disease”; the “stool consistency (had been watery)” value is “became solid”. In addition, the hemorrhage during defecation result in the series with ulcerative colitis (by Jun. 17, 2019 (inhalation started Jun. 3, 2019)) is given as “further decreased”. Moreover, in the series with ulcerative colitis (endoscopy on Sep. 25, 2019), the “endoscopy: hemorrhage in the rectum (had been filled with blood)” value was “no hemorrhage in the rectum”; the “endoscopy: wall of the small and large intestines” value is recorded as “recovered completely”. For the same compound, the “endoscopy: several polyps found in the stomach” value in the series with ulcerative colitis (endoscopy on Sep. 25, 2019, inhalation of hydrogen gas and drinking of hydrogen water) was “disappeared”. Besides, the “volume of melena during defecation” value in the series on ulcerative colitis (person, ulcerative colitis, around June 9, six days after initiation of hydrogen gas inhalation (approx. 5.0%, 1-3 h/day) plus hydrogen water 7 ppm, two 500 mL bottles/day) is given as “began to decrease”. In addition, the “concentration of hydrogen dissolved in water” value in series [2] was “approximately 1.6 ppm”.
